Values after ≈ are worked out from the molar mass of the structure shown.
Test system: E. coli
Assay: Bacterial susceptibility testing, MIC by broth microdilution (CLSI)
Conditions: for MIC: Escherichia coli, read-out: E. coli MIC, broth microdilution, 35° C., 18-24 h; for E. coli MIC: broth microdilution, 35° C., 18-24 h
Procedure: Minimal inhibitory concentrations (MIC) were determined by the broth microdilution method in accordance with the Clinical and Laboratory Standards Institute (CLSI) guidelines. In brief, organism suspensions were adjusted to a 0.5 McFarland standard to yield a final inoculum between 3×10^3 and 7×10^5 colony-forming units (CFU)/mL. Drug dilutions and inocula were made in sterile, cation adjusted Mueller-Hinton Broth (Beckton Dickinson). An inoculum volume of 100 μL was added to wells containing 100 μL of broth with 2-fold serial dilutions of drug.

Structure (SMILES)	MIC [µg/mL]	E. coli MIC
O=c1[nH]cnc(CC(CNCCF)c2ccc(C#Cc3ccc(CN4CCOCC4)cc3)cc2)c1O (centres unmarked) [Compound 6]	1 to 8 (≈ 2.04 to 16.3 µM)	
CC(O)C(Cc1nc[nH]c(=O)c1O)c1ccc(C#Cc2ccc(CN3CCOCC3)cc2)cc1 (centres unmarked) [Compound 12]	1 to 8 (≈ 2.18 to 17.4 µM)	
NCC(Cc1nc[nH]c(=O)c1O)c1ccc(C#Cc2ccc(CN3CCOCC3)cc2)cc1 (centres unmarked) [Compound 18]	1 to 8 (≈ 2.25 to 18 µM)	
O=C(NCCF)C(Cc1nc[nH]c(=O)c1O)c1ccc(C#Cc2ccc(CN3CCOCC3)cc2)cc1 (centres unmarked) [Compound 19]	< 1	
O=C(NCCF)C(Cc1nc[nH]c(=O)c1O)c1ccc(C#Cc2ccc(CN3CCOCC3)cc2)cc1 (centres unmarked) [Compound 20]		A (A: ≤1 μg/mL)
O=C(NCCF)C(Cc1nc[nH]c(=O)c1O)c1ccc(C#Cc2ccc(CN3CCOCC3)cc2)cc1 (centres unmarked) [Compound 21]		B (B: >1 μg/mL to ≤8.0 μg/mL)
O=C(NCC(F)F)C(Cc1nc[nH]c(=O)c1O)c1ccc(C#Cc2ccc(CN3CCOCC3)cc2)cc1 (centres unmarked) [Compound 22]	< 1	
CNC(=O)C(Cc1nc[nH]c(=O)c1O)c1ccc(C#Cc2ccc(CN3CCOCC3)cc2)cc1 (centres unmarked) [Compound 23]	< 1	
COC(=O)C(Cc1nc[nH]c(=O)c1O)c1ccc(C#Cc2ccc(CN3CCOCC3)cc2)cc1 (centres unmarked) [Compound 24]	< 1	
O=C(NC1CC(F)(F)C1)C(Cc1nc[nH]c(=O)c1O)c1ccc(C#Cc2ccc(CN3CCOCC3)cc2)cc1 (centres unmarked) [Compound 25]	1 to 8 (≈ 1.82 to 14.6 µM)	
CCOC(=O)C(Cc1nc[nH]c(=O)c1O)c1ccc(C#Cc2ccc(CNC3CCOC3)cc2)cc1 (centres unmarked) [Compound 26]	1 to 8 (≈ 2.05 to 16.4 µM)	
COC(=O)C(Cc1nc[nH]c(=O)c1O)c1ccc(C#Cc2ccc(CNC3CCOC3)cc2)cc1 (centres unmarked) [Compound 27]	1 to 8 (≈ 2.11 to 16.9 µM)	
CC(C#N)NC(=O)C(Cc1nc[nH]c(=O)c1O)c1ccc(C#Cc2ccc(CN3CCOCC3)cc2)cc1 (centres unmarked) [Compound 28]	1 to 8 (≈ 1.95 to 15.6 µM)	
O=C(NCC(F)F)C(Cc1nc[nH]c(=O)c1O)c1ccc(C#Cc2ccc(Cn3ccnc3CO)cc2)cc1 (centres unmarked) [Compound 29]	< 1	
CC(CO)(Cc1nc[nH]c(=O)c1O)c1ccc(C#Cc2ccc(CN3CCOCC3)cc2)cc1 (centres unmarked) [Compound 31]	< 1	
N#CC1CCN(Cc2ccc(C#Cc3ccc([C@@H](CO)Cc4nc[nH]c(=O)c4O)cc3)cc2)C1 (some centres unmarked) [Compound 33]	< 1	
N#C[C@H]1CCN(Cc2ccc(C#Cc3ccc(C(CO)Cc4nc[nH]c(=O)c4O)cc3)cc2)C1 (some centres unmarked) [Compound 34]	< 1	
N#C[C@@H]1CCN(Cc2ccc(C#Cc3ccc(C(CO)Cc4nc[nH]c(=O)c4O)cc3)cc2)C1 (some centres unmarked) [Compound 36]	< 1	
O=c1[nH]cnc(CC(CO)c2ccc(C#Cc3ccc(CNC4C5COCC54)cc3)cc2)c1O (centres unmarked) [Compound 37]	< 1	
O=c1[nH]cnc(CC(CO)c2ccc(C#Cc3ccc(CNC4CCS(=O)(=O)C4)cc3)cc2)c1O (centres unmarked) [Compound 38]	< 1	
O=c1[nH]cnc(CC(CO)c2ccc(C#Cc3ccc(CN4CC5(CCCO5)C4)cc3)cc2)c1O (centres unmarked) [Compound 42]	< 1	
O=c1[nH]cnc(CC(CO)c2ccc(C#Cc3ccc(CN4CC5(COC5)C4)cc3)cc2)c1O (centres unmarked) [Compound 47]	1 to 8 (≈ 2.19 to 17.5 µM)	

Structure (SMILES)	MIC [µg/mL]	E. coli MIC
O=c1[nH]cnc(CC(CO)c2ccc(C#Cc3ccc(CNC4COC4)cc3)cc2)c1O (centres unmarked) [Compound 49]	< 1	
CCOC(=O)C(Cc1nc[nH]c(=O)c1O)c1ccc(C#Cc2ccc(CNC3COC3)cc2)cc1 (centres unmarked) [Compound 50]	1 to 8 (≈ 2.11 to 16.9 µM)	
O=c1[nH]cnc(CC(CO)c2ccc(C#Cc3ccc(CN4CC(N5CCOCC5)C4)cc3)cc2)c1O (centres unmarked) [Compound 51]	1 to 8 (≈ 2 to 16 µM)	
O=c1[nH]cnc(CC(CO)c2ccc(C#Cc3ccc(CNCC4CCOC4)cc3)cc2)c1O (centres unmarked) [Compound 52]	1 to 8 (≈ 2.18 to 17.4 µM)	
O=c1[nH]cnc(CC(CO)c2ccc(C#Cc3ccc(CNC4CCOCC4)cc3)cc2)c1O (centres unmarked) [Compound 53]	1 to 8 (≈ 2.18 to 17.4 µM)	
N=S1(=O)CCC(NCc2ccc(C#Cc3ccc(C(CO)Cc4nc[nH]c(=O)c4O)cc3)cc2)C1 (centres unmarked) [Compound 56]	1 to 8 (≈ 2.03 to 16.2 µM)	
COCCNCc1ccc(C#Cc2ccc(C(CO)Cc3nc[nH]c(=O)c3O)cc2)cc1 (centres unmarked) [Compound 57]	1 to 8 (≈ 2.31 to 18.5 µM)	
O=c1[nH]cnc(CC(CO)c2ccc(C#Cc3ccc(CNCC4CC4)cc3)cc2)c1O (centres unmarked) [Compound 58]	1 to 8 (≈ 2.33 to 18.6 µM)	
CN1CCN(C(=O)c2ccc(C#Cc3ccc(C(CO)Cc4nc[nH]c(=O)c4O)cc3)cc2)CC1 (centres unmarked) [Compound 59]	1 to 8 (≈ 2.12 to 16.9 µM)	
O=c1[nH]cnc(CC(CO)c2ccc(C#Cc3ccc(CNC4CC[S+]([O-])C4)cc3)cc2)c1O (centres unmarked) [Compound 60]	1 to 8 (≈ 2.09 to 16.8 µM)	
CNCc1ccc(C#Cc2ccc(C(CO)Cc3nc[nH]c(=O)c3O)cc2)cc1 (centres unmarked) [Compound 61]	1 to 8 (≈ 2.57 to 20.5 µM)	
NCc1ccc(C#Cc2ccc(C(CO)Cc3nc[nH]c(=O)c3O)cc2)cc1 (centres unmarked) [Compound 63]	1 to 8 (≈ 2.66 to 21.3 µM)	
NC1(Cc2ccc(C#Cc3ccc(C(CO)Cc4nc[nH]c(=O)c4O)cc3)cc2)CCOCC1 (centres unmarked) [Compound 64]	1 to 8 (≈ 2.18 to 17.4 µM)	
NC(Cc1nc[nH]c(=O)c1O)c1ccc(C#Cc2ccc(CN3CCOCC3)cc2)cc1 (centres unmarked) [Compound 65]	< 1	
COC1CN(CC(Cc2nc[nH]c(=O)c2O)c2ccc(C#Cc3ccc(CN4CCOCC4)cc3)cc2)C1 (centres unmarked) [Compound 71]	< 1	
CC(F)CNCC(Cc1nc[nH]c(=O)c1O)c1ccc(C#Cc2ccc(CN3CCOCC3)cc2)cc1 (centres unmarked) [Compound 74]	< 1	
O=c1[nH]cnc(CC(CN[C@H]2C[C@@H](F)C2)c2ccc(C#Cc3ccc(CN4CCOCC4)cc3)cc2)c1O (some centres unmarked) [Compound 75]	< 1	
O=c1[nH]cnc(CC(CN[C@H]2C[C@@H](F)C2)c2ccc(C#Cc3ccc(CN4CCOCC4)cc3)cc2)c1O (some centres unmarked) [Compound 76]		A (A: ≤1 μg/mL)
O=c1[nH]cnc(CC(CN[C@H]2C[C@@H](F)C2)c2ccc(C#Cc3ccc(CN4CCOCC4)cc3)cc2)c1O (some centres unmarked) [Compound 77]		B (B: >1 μg/mL to ≤8.0 μg/mL)
O=c1[nH]cnc(CC(CN[C@H]2C[C@H](F)C2)c2ccc(C#Cc3ccc(CN4CCOCC4)cc3)cc2)c1O (some centres unmarked) [Compound 78]	1 to 8 (≈ 1.94 to 15.5 µM)	
O=c1[nH]cnc(CC(CN[C@H]2C[C@H](F)C2)c2ccc(C#Cc3ccc(CN4CCOCC4)cc3)cc2)c1O (some centres unmarked) [Compound 79]		A (A: ≤1 μg/mL)
O=c1[nH]cnc(CC(CN[C@H]2C[C@H](F)C2)c2ccc(C#Cc3ccc(CN4CCOCC4)cc3)cc2)c1O (some centres unmarked) [Compound 80]		A (A: ≤1 μg/mL)

Structure (SMILES)	MIC [µg/mL]	E. coli MIC
C[C@@H](CF)NCC(Cc1nc[nH]c(=O)c1O)c1ccc(C#Cc2ccc(CN3CC(C#N)C3)cc2)cc1 (some centres unmarked) [Compound 81]	< 1	
C[C@H](CF)NCC(Cc1nc[nH]c(=O)c1O)c1ccc(C#Cc2ccc(CN3CC(C#N)C3)cc2)cc1 (some centres unmarked) [Compound 83]	< 1	
CC(CC#N)NCC(Cc1nc[nH]c(=O)c1O)c1ccc(C#Cc2ccc(CN3CCOCC3)cc2)cc1 (centres unmarked) [Compound 97]	< 1	
COC1CN(Cc2ccc(C#Cc3ccc(C(CNCC(C)F)Cc4nc[nH]c(=O)c4O)cc3)cc2)C1 (centres unmarked) [Compound 101]	< 1	
N#CC1CN(CC(Cc2nc[nH]c(=O)c2O)c2ccc(C#Cc3ccc(CN4CCOCC4)cc3)cc2)C1 (centres unmarked) [Compound 102]	< 1	
O=c1[nH]cnc(CC(CNCCCF)c2ccc(C#Cc3ccc(CN4CCOCC4)cc3)cc2)c1O (centres unmarked) [Compound 105]	< 1	
O=c1[nH]cnc(CC(CNCCCF)c2ccc(C#Cc3ccc(CN4CCOCC4)cc3)cc2)c1O (centres unmarked) [Compound 106]		B (B: >1 μg/mL to ≤8.0 μg/mL)
O=c1[nH]cnc(CC(CNCCCF)c2ccc(C#Cc3ccc(CN4CCOCC4)cc3)cc2)c1O (centres unmarked) [Compound 107]		A (A: ≤1 μg/mL)
O=c1[nH]cnc(CC(CNC2CC(F)(F)C2)c2ccc(C#Cc3ccc(CN4CCOCC4)cc3)cc2)c1O (centres unmarked) [Compound 112]	< 1	
O=c1[nH]cnc(CC(CNC2CC(F)(F)C2)c2ccc(C#Cc3ccc(CN4CCOCC4)cc3)cc2)c1O (centres unmarked) [Compound 113]		B (B: >1 μg/mL to ≤8.0 μg/mL)
O=c1[nH]cnc(CC(CNC2CC(F)(F)C2)c2ccc(C#Cc3ccc(CN4CCOCC4)cc3)cc2)c1O (centres unmarked) [Compound 114]		B (B: >1 μg/mL to ≤8.0 μg/mL)
O=c1[nH]cnc(CC(CNCC(F)F)c2ccc(C#Cc3ccc(CN4CCOCC4)cc3)cc2)c1O (centres unmarked) [Compound 115]	< 1	
O=c1[nH]cnc(CC(CNC2CC2)c2ccc(C#Cc3ccc(CN4CCOCC4)cc3)cc2)c1O (centres unmarked) [Compound 118]	< 1	
O=c1[nH]cnc(CC(CNC2CC2)c2ccc(C#Cc3ccc(CN4CCOCC4)cc3)cc2)c1O (centres unmarked) [Compound 119]		A (A: ≤1 μg/mL)
O=c1[nH]cnc(CC(CNC2CC2)c2ccc(C#Cc3ccc(CN4CCOCC4)cc3)cc2)c1O (centres unmarked) [Compound 120]		B (B: >1 μg/mL to ≤8.0 μg/mL)
COC1CN(Cc2ccc(C#Cc3ccc(C(Cc4nc[nH]c(=O)c4O)CN4C(=O)OC[C@@H]4C)cc3)cc2)C1 (some centres unmarked) [Compound 121]	1 to 8 (≈ 1.89 to 15.1 µM)	
COC1CN(Cc2ccc(C#Cc3ccc(C(Cc4nc[nH]c(=O)c4O)CN4C(=O)OC[C@@H]4C)cc3)cc2)C1 (some centres unmarked) [Compound 122]		A (A: ≤1 μg/mL)
CS(=O)(=O)CCNCC(Cc1nc[nH]c(=O)c1O)c1ccc(C#Cc2ccc(CN3CCOCC3)cc2)cc1 (centres unmarked) [Compound 128]	1 to 8 (≈ 1.82 to 14.5 µM)	
O=c1[nH]cnc(CC(CNCCO)c2ccc(C#Cc3ccc(CN4CCOCC4)cc3)cc2)c1O (centres unmarked) [Compound 129]	1 to 8 (≈ 2.05 to 16.4 µM)	
N#CCCNCC(Cc1nc[nH]c(=O)c1O)c1ccc(C#Cc2ccc(CN3CCOCC3)cc2)cc1 (centres unmarked) [Compound 130]	1 to 8 (≈ 2.01 to 16.1 µM)	
CC(NCC(F)F)C(Cc1nc[nH]c(=O)c1O)c1ccc(C#Cc2ccc(CN3CCOCC3)cc2)cc1 (centres unmarked) [Compound 131]	1 to 8 (≈ 1.91 to 15.3 µM)	

From patent US11407740B2 (priority 2018, dated 2022)
